Assay results published in patent US6462055B2, “Alpha-methylbenzyl-containing thiourea inhibitors of herpes viruses containing a phenylenediamine group” (Wyeth, priority 1998, dated 2002).
Values after ≈ are worked out from the molar mass of the structure shown.

Assays:
[1] = system: HSV-1; test: HSV Antiviral (ELISA) Assay in Vero cells; assay type: cell-based, herpes simplex virus type 1; conditions: HSV-1, Vero cells; for IC50: Human alphaherpesvirus 1, read-out: IC50 (ug/ml) HSV
How it was run: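 Viral replication was quantified by cell-fixed ELISA for HSV glycoprotein D, using a β-galactosidase reporter and fluorogenic umbelliferyl substrate, about 24 h after HSV-1 infection (MOI 0.006) of Vero cells. Compounds, at several concentrations, were added 30 min pre-infection. IC50 was derived from fluorescence relative to the compound-free signal.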

[2] = system: HCMV recombinant mutant virus (RV145); test: microbe, parasite or virus in culture; assay type: cell-based, human cytomegalovirus; conditions: for IC50: Human betaherpesvirus 5, read-out: IC50 ug/ml HCMV, HCMV
How it was run: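 Human foreskin fibroblasts infected with HCMV RV145 carrying a viral-promoter-driven beta-glucuronidase gene, in presence of compound. At 96 h post-infection, lysates assayed for beta-glucuronidase with colorimetric or fluorogenic glucuronide substrate as replication read-out. IC50 estimated from varying inhibitor amounts.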

[3] = system: VZV strain Ellen; test: VZV Antiviral (ELISA) Assay in human foreskin fibroblast cells; assay type: cell-based, varicella-zoster virus; conditions: for IC50 / inhibition at 10 µg/mL: Human alphaherpesvirus 3, Fibroblast; for IC50: read-out: IC50 (ug/ml) VZV; for inhibition at 10 µg/mL: read-out: % inhibition 10 ug/ml VZV, 10 ug/ml
How it was run: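 First, fibroblasts are infected at multiplicity below 0.1 and kept overnight. The harvested cell mixture then goes onto compound-containing wells for three days at 37° C. Finally, cells are fixed and viral gpII is measured by fluorogenic ELISA.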

Compound | IC50 [1] [µg/mL] | IC50 [2] [µg/mL] | IC50 [3] [µg/mL] | inhibition at 10 µg/mL [3] [%] | IC50 (ug/ml) HSV [1] [µg/mL] | IC50 ug/ml HCMV [2] [µg/mL] | IC50 (ug/ml) VZV [3] [µg/mL] | % inhibition 10 ug/ml VZV [3] [%]
O=C(Nc1ccc(NC(=S)NC(CO)c2ccccc2)cc1)c1ccccc1F (stereo not shown) [Example 797] | > 10 | > 10 | 1.7 (≈ 4.15 µM) | – | – | – | – | –
O=C(Nc1ccc(NC(=S)Nc2cccc([N+](=O)[O-])c2)cc1)c1ccccc1F [Example 959, 2-Fluoro-N-{4-[3-(3-nitro-phenyl)-thioureido]-phenyl}-benzamide] | 0.7 (≈ 1.71 µM) | > 10 | > 10 | 33 | – | – | – | –
O=C(Nc1ccc(NC(=S)NCCCc2ccccc2)cc1)c1ccccc1F [Example 628] | – | – | – | – | >10 | >10 | 10 (≈ 24.5 µM) | –
COc1cc(OC)c(NC(=S)Nc2ccc(NC(=O)c3cc(F)ccc3F)cc2)cc1Cl [Example 187] | – | – | – | – | 0.2 (≈ 0.418 µM) | >10 | >10 | 53
COc1cccc(C(=O)Nc2ccc(NC(=S)Nc3ccc(C)c(Cl)c3)cc2)c1 [Example 232] | – | – | – | – | 1 (≈ 2.35 µM) | >10 | >10 | 21
CC(NC(=S)Nc1ccc(NC(=O)c2ccccc2)cc1)c1ccc(F)cc1 (stereo not shown) [Example 758] | > 10 | > 10 | > 10 | – | – | – | – | –
CC(NC(=S)Nc1ccc(C(=O)Nc2ccc(F)cc2)cc1)c1ccc(F)cc1 (stereo not shown) [Example 975, N-(4-Fluoro-phenyl)-4-{3-[1-(4-fluoro-phenyl)-ethyl]-thioureido}-benzamide] | > 10 | > 10 | 0.87 (≈ 2.11 µM) | – | – | – | – | –
CS(=O)(=O)Nc1ccc(NC(=S)Nc2ccc(NC(=O)c3ccccc3F)cc2)cc1Cl [Example 370] | – | – | – | – | >10 | >10 | >10 | 16
CN(c1ccc(NC(=S)Nc2ccc(NC(=O)c3ccccc3F)cc2)cc1Cl)C1CCCCC1 [Example 238] | – | – | – | – | >10 | >10 | >10 | 38
CCOC(=O)COc1cccc(C(=O)Nc2ccc(NC(=S)Nc3cc(Cl)c(OC)cc3OC)cc2)c1 [Example 221] | – | – | – | – | >10 | >10 | >10 | 17
CN1CCC(N(C)c2ccc(NC(=S)Nc3ccc(NC(=O)c4c(F)cccc4F)cc3)cc2Cl)C1 (stereo not shown) [Example 349] | – | – | – | – | 5 (≈ 9.43 µM) | 1.2 (≈ 2.26 µM) | 4 (≈ 7.55 µM) | 110
CC(NC(=S)Nc1ccc(NC(=O)c2cc3ccccc3o2)cc1)c1ccc(F)cc1 (stereo not shown) [Example 980, Benzofuran-2-carboxylic acid (4-{3-[1-(4-fluoro-phenyl)-ethyl]-thioureido}-phenyl)-amide] | > 10 | > 10 | 0.15 (≈ 0.346 µM) | – | – | – | – | –
O=C(Nc1ccc(NC(=S)Nc2ccc(OC(F)(F)F)c(Br)c2)cc1)c1ccccc1F [Example 549] | – | – | – | – | >10 | >10 | >10 | –
O=C(Nc1ccc(NC(=S)Nc2ccc(F)c(Cl)c2)cc1)c1ccccc1F [Example 922, N-{4-[3-(3-Chloro-4-fluoro-phenyl)-thioureido]-phenyl}-2-fluoro-benzamide] | 1 (≈ 2.39 µM) | > 10 | > 10 | 40 | – | – | – | –
CN(C)c1cc(CNC(=S)Nc2ccc(NC(=O)c3ccccc3F)cc2)cc(C(F)(F)F)c1 [Example 636] | – | – | – | – | >10 | >10 | 5 (≈ 10.2 µM) | –
COc1cc(OC)c(NC(=S)Nc2ccc(NC(=O)c3ccccc3C(F)(F)F)cc2)cc1Cl [Example 138] | – | – | – | – | 1 (≈ 1.96 µM) | 8 (≈ 15.7 µM) | >10 | 57
CC(NC(=S)Nc1ccc(NC(=O)c2ccccc2F)cc1)c1ccc(C#N)cc1 (stereo not shown) [Example 792] | > 10 | 5 (≈ 11.9 µM) | > 7.5 | – | – | – | – | –
O=C(Nc1ccc(NC(=S)Nc2cc(Br)cc(C(F)(F)F)c2)cc1)c1ccccc1F [Example 531] | – | – | – | – | >10 | 5 (≈ 9.76 µM) | 6 (≈ 11.7 µM) | –
COc1ccccc1C(=O)Nc1ccc(NC(=S)Nc2cc(Cl)c(OC)c(Cl)c2)cc1 [Example 873] | – | – | – | – | >10 | 0.3 (≈ 0.63 µM) | >10 | 23

Compound | IC50 [1] [µg/mL] | IC50 [2] [µg/mL] | IC50 [3] [µg/mL] | inhibition at 10 µg/mL [3] [%] | IC50 (ug/ml) HSV [1] [µg/mL] | IC50 ug/ml HCMV [2] [µg/mL] | IC50 (ug/ml) VZV [3] [µg/mL] | % inhibition 10 ug/ml VZV [3] [%]
CC(NC(=S)Nc1ccc(NC(=O)c2cc3ccccc3cn2)cc1)c1cc2ccccc2o1 (stereo not shown) [Example 985, Isoquinoline-3-carboxylic acid {4-[3-(1-benzofuran-2-yl-ethyl)-thioureido]-phenyl}-amide] | > 10 | > 10 | 0.035 (≈ 0.075 µM) | – | – | – | – | –
CC(NC(=S)Nc1ccc(NC(=O)c2ccccc2C(F)(F)F)cc1)c1cc2ccccc2o1 (stereo not shown) [Example 974, N-{4-[3-(1-Benzofuran-2-yl-ethyl)-thioureido]-phenyl}-2-trifluoromethyl-benzamide] | > 10 | > 10 | > 7.5 | – | – | – | – | –
O=C(Nc1ccc(NC(=S)NCc2cc(C(F)(F)F)cc(C(F)(F)F)c2)cc1)c1ccccc1F [Example 543] | – | – | – | – | >10 | 0.3 (≈ 0.582 µM) | >10 | –
COc1cc(OC)c(NC(=S)Nc2ccc(NC(=O)c3ccccc3F)c(C(=O)c3ccccc3)c2)cc1Cl [Example 293] | – | – | – | – | >50 | >10 | >10 | 2
CN(C)CCSCC(=O)Nc1ccc(NC(=S)Nc2ccc(NC(=O)c3ccccc3F)cc2)cc1Cl [Example 373] | – | – | – | – | 9 (≈ 16.1 µM) | 6 (≈ 10.7 µM) | >10 | 4
COc1cc(OC)c(NC(=S)Nc2ccc(NC(=O)c3cccc(OCCN4CCOCC4)c3)cc2)cc1Cl [Example 258] | – | – | – | – | 1.5 (≈ 2.63 µM) | 5 (≈ 8.76 µM) | 1.5 (≈ 2.63 µM) | 92
CC(NC(=S)Nc1ccc(NC(=O)c2ccc(F)cc2)cc1)c1ccc(F)cc1 (stereo not shown) [Example 801] | > 10 | > 10 | > 7.5 | – | – | – | – | –
COc1cccc(C(=O)Nc2ccc(NC(=S)NC(C)c3ccc(F)cc3)cc2)c1 (stereo not shown) [Example 753] | – | – | – | – | >10 | >0.5 | >7.5 | –
O=C(Nc1ccc(NC(=S)Nc2ccc(Cl)c(Cl)c2)cc1)c1ccccc1F [Example 912, N-{4-[3-(3,4-Dichloro-phenyl)-thioureido]-phenyl}-2-fluoro-benzamide] | 8 (≈ 18.4 µM) | > 10 | > 10 | 21 | – | – | – | –
CC(C)COc1ccc(NC(=S)Nc2ccc(NC(=O)c3ccccc3F)cc2)cc1Cl [Example 994, N-{4-[3-(3-Chloro-4-isobutoxy-phenyl)-thioureido]-phenyl}-2-fluoro-benzamide] | > 10 | > 10 | > 10 | – | – | – | – | –
O=C(CN1CCCC1)Nc1ccc(NC(=S)Nc2ccc(NC(=O)c3ccccc3F)cc2)cc1Cl [Example 417] | – | – | – | – | 6 (≈ 11.4 µM) | >10 | >10 | 15
COc1cc(OC)c(NC(=S)Nc2ccc(NC(=O)c3ccccc3N[S+](C)[O-])cc2)cc1Cl (stereo not shown) [Example 191] | – | – | – | – | 8 (≈ 15.4 µM) | >10 | >10 | 22
COc1cc(OC)c(NC(=S)Nc2ccc(NC(=O)c3ccc(F)c(F)c3F)cc2)cc1Cl [Example 192] | – | – | – | – | 0.5 (≈ 1.01 µM) | >10 | >10 | 14
CC(C)Oc1ccc(NC(=S)Nc2ccc(NC(=O)c3ccccc3F)cc2)cc1Cl [Example 808] | – | – | – | – | >10 | >10 | >7.5 | –
COc1cc(OC)c(NC(=S)Nc2ccc(NC(=O)c3ccccc3[S+](C)[O-])cc2)cc1Cl (stereo not shown) [Example 220] | – | – | – | – | >10 | >10 | >10 | 35
COc1cc(OC)c(NC(=S)Nc2ccc(NC(=O)c3ccccc3N)cc2)cc1Cl [Example 181] | – | – | – | – | 1.5 (≈ 3.28 µM) | >10 | >10 | 60
CC(NC(=S)Nc1ccc(NC(=O)c2nccc3ccccc23)cc1)c1cc2ccccc2o1 (stereo not shown) [Example 977, Isoquinoline-1-carboxylic acid {4-[3-(1-benzofuran-2-yl-ethyl)-thioureido]-phenyl}-amide] | > 10 | > 10 | 0.05 (≈ 0.107 µM) | – | – | – | – | –
Cc1ccc(NC(=S)Nc2ccc(NC(=O)c3ccccc3F)cc2)cc1C(F)(F)F [Example 1003, 2-Fluoro-N-{4-[3-(4-methyl-3-trifluoromethyl-phenyl)-thioureido]-phenyl}-benzamide] | > 10 | > 10 | > 10 | – | – | – | – | –
